{
  "source": "patent US9273341B2",
  "about": "“Methods for treatment of bacterial infections” (THE JOHNS HOPKINS UNVIERSITY, priority 2010, dated 2016)",
  "key": {"LdtMt2 [1]": {"target": "T1, LdtMt2 (Mycobacterium tuberculosis, UniProt O53223)", "T1 construct": "initiator methionine from the pET2818 ATG codon (N); made in house; host or cells: E. coli BL21(DE3) harboring pREP4GroESL and pET2818 with the ldtMt2 fragment", "T1 sequence (O53223 55-408)": "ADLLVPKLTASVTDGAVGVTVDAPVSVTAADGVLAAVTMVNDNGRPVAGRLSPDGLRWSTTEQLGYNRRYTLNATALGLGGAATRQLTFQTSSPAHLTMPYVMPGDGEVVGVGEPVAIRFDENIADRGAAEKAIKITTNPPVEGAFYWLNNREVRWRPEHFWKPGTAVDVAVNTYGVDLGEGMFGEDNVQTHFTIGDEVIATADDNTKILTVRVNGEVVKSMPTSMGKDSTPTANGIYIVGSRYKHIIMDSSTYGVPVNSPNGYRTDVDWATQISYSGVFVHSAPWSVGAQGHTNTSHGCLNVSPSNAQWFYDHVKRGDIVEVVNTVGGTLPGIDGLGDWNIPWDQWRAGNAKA", "type": "binding, M. tuberculosis"}, "LdtMt2 [2]": {"target": "T1, LdtMt2", "type": "biochemical, M. tuberculosis"}, "[3]": {"system": "M. tuberculosis mutant strain lacking LdtMt2 (ldtMt2::Tn)", "type": "cell-based"}, "[4]": {"system": "M. tuberculosis lacking LdtMt2 (ldtMt2::Tn)", "set-up": "species or system Balb/C mice", "conditions": "mouse, in vivo"}},
  "note": "“Also recorded” adds a separate entry of the source.",
  "data": [
    {"smiles": "C[C@@H](O)[C@H]1C(=O)N2C(C(=O)O)=C(S[C@@H]3CN[C@H](C(=O)N(C)C)C3)[C@H](C)[C@H]12", "note": "[meropenem]", "values": [
      {"measurement": "formation of covalent adducts with LdtMt2", "setting": "LdtMt2 [1]", "value": "formation of covalent adducts"}
    ]},
    {"smiles": "CC1(C)S[C@@H]2[C@H](NC(=O)[C@H](N)c3ccccc3)C(=O)N2[C@H]1C(=O)O", "note": "[ampicillin]", "values": [
      {"measurement": "concentration up to which LdtMt2 was not inhibited", "setting": "LdtMt2 [2]", "value": "> 5,700 μM"},
      {"measurement": "formation of covalent adducts with LdtMt2", "setting": "LdtMt2 [1]", "value": "Adducts were not detected; also recorded: No adduct was detected"}
    ]},
    {"smiles": "CO/N=C(\\C(=O)N[C@@H]1C(=O)N2C(C(=O)O)=C(CSc3nc(=O)c(=O)[nH]n3C)CS[C@H]12)c1csc(N)n1", "note": "[ceftriaxone]", "values": [
      {"measurement": "concentration up to which LdtMt2 was not inhibited", "setting": "LdtMt2 [2]", "value": "> 360", "unit": "µM"},
      {"measurement": "formation of covalent adducts with LdtMt2", "setting": "LdtMt2 [1]", "value": "Adducts were not detected; also recorded: No adduct was detected"}
    ]},
    {"smiles": "N[C@@H]1CON=C1O", "note": "[D-cycloserine]", "values": [
      {"measurement": "MIC", "setting": "[3]", "value": 5, "unit": "µg/mL"}
    ]},
    {"smiles": "NNC(=O)c1ccncc1", "note": "[isoniazid]", "values": [
      {"measurement": "bacterial burden (lung CFU) under treatment", "setting": "[4]", "value": "similarly effective"}
    ]},
    {"smiles": "C[C@@H](O)[C@H]1C(=O)N2C(C(=O)O)=C(S[C@@H]3CN[C@H](C(=O)Nc4cccc(C(=O)O)c4)C3)[C@H](C)[C@H]12", "note": "[ertapenem]", "values": [
      {"measurement": "formation of covalent adducts with LdtMt2", "setting": "LdtMt2 [1]", "value": "formation of covalent adducts"}
    ]}
  ]
}
